Laboratory results: article PMC10808981, “Synthesis and structure–activity relationships of aryl fluorosulfate-based inhibitors as novel antitubercular agents” (Bioorganic & Medicinal Chemistry Letters, 2024)
In brackets after ≈: the same amount, converted by molar mass.

How the values were obtained:
[1] = HEK293T cytotoxicity assay (Cell Titer-Glo); assay type: cell-based; conditions: human, HEK293T cells; HEK293T, 3 days
Method: HEK293T (ATCC) were grown in DMEM (Gibco Cat # 11965-092) supplemented with 10% heat-inactivated FBS, Pen Strep (Gibco) 1X in a 5% CO2 humidified atmosphere at 37◦C. Cells were washed once with DPBS 1X (Gibco), incubated for less than 5 minutes at room temperature in TrypLE solution (Gibco), washed once in propagation medium to remove trypsin, and counted with Trypan Blue. 5 µL of cell suspension ([…]) was dispensed into 1536-well plates containing serial 3-fold drug dilution ranging from 40 µM to 2 nM and incubated for 3 days in a 5% CO2 humidified atmosphere at 37 ◦C. Cell Titer-Glo® Luminescent Cell Viability Assay (Promega) reagent was diluted 1:1 with water and then 2 µL were added to plates. Luminescence was measured in a PHERAStar plate reader (BMG Labtech) and data normalized to negative control (DMSO) minus inhibitor (Puromycin 10 µM). Dose-response curves were fit using the Smart Fit function in Genedata Screener Analyzer (v16.0.8).

in vitro = conditions: human
Mtb H37Rv = experiment: MIC determination in Mtb H37Rv, Microdilution Alamar Blue Assay (MABA); assay type: cell-based, Mycobacterium tuberculosis; conditions: for MIC: Mtb H37Rv, MABA, 7 days
[2] = Mycobacterium tuberculosis, H37RV, 168 h

Compound	CC50 at 72 h [1]	CC50 (in vitro)	MIC (Mtb H37Rv; [2])	CC50 at 72 h (in vitro)	CC50 at 3 days [1]	MIC (Mtb H37Rv)	anti-TB activity against Mtb (in words) (Mtb H37Rv)
O=S(=O)(F)Oc1ccc(OCc2cc(F)c(-n3cncn3)c(F)c2)cc1 [Compound 3 g, 4-((3,5-difluoro-4-(1H-1,2,4-triazol-1-yl)benzyl)oxy)phenyl sulfurofluoridate]	34.8 µM	> 40 µM	10 µM (≈ 3.85 µg/mL)				
O=S(=O)(F)Oc1ccc(OCc2cc(F)c(-n3cncn3)cc2F)cc1 [Compound 3 h, 4-((2,5-difluoro-4-(1H-1,2,4-triazol-1-yl)benzyl)oxy)phenyl sulfurofluoridate]	21.6 µM		1.25 µM (≈ 0.482 µg/mL)	29.5 µM			
O=S(=O)(F)Oc1ccc(OCc2c(F)cc(-n3nccn3)cc2F)cc1 [Compound 3 k, 4-((2,6-difluoro-4-(2H-1,2,3-triazol-2-yl)benzyl)oxy)phenyl sulfurofluoridate]		> 40 µM	1.23 µM (≈ 0.474 µg/mL)		> 40 µM		
O=S(=O)(F)Oc1ccc(OCc2c(F)cc(-n3ccnn3)cc2F)cc1 [Compound 3 l, 4-((2,6-difluoro-4-(1H-1,2,3-triazol-1-yl)benzyl)oxy)phenyl sulfurofluoridate]	27.7 µM		0.16 µM (≈ 0.0617 µg/mL)	17 µM			
O=S(=O)(F)Oc1ccc(OCc2ccc(-n3cncn3)c(F)c2)cc1 [Compound 3e, 4-((3-fluoro-4-(1H-1,2,4-triazol-1-yl)benzyl)oxy)phenyl sulfurofluoridate]	16.8 µM		2.5 µM (≈ 0.918 µg/mL)	17.6 µM			
O=S(=O)(F)Oc1ccc(OCc2ccc(-n3cncn3)c(F)c2F)cc1 [Compound 3f, 4-((2,3-difluoro-4-(1H-1,2,4-triazol-1-yl)benzyl)oxy)phenyl sulfurofluoridate]	18.8 µM		1.25 µM (≈ 0.482 µg/mL)	22.4 µM			
N#Cc1cc(-n2cncn2)cc(F)c1COc1ccc(OS(=O)(=O)F)cc1 [Compound 3j, 4-((2-cyano-6-fluoro-4-(1H-1,2,4-triazol-1-yl)benzyl)oxy)phenyl sulfurofluoridate]		> 40 µM	5 µM (≈ 1.96 µg/mL)		> 40 µM	5 µM (≈ 1.96 µg/mL)	
O=S(=O)(F)Oc1ccc(OCc2c(F)cc(-n3cnnn3)cc2F)cc1 [Compound 19 g, 4-((2,6-difluoro-4-(1H-tetrazol-1-yl)benzyl)oxy)phenyl sulfurofluoridate]	13.2 µM		0.45 µM (≈ 0.174 µg/mL)	12.1 µM			
O=S(=O)(F)Oc1ccc(OCc2c(F)cc(-c3nnn[nH]3)cc2F)cc1 [Compound 19 h, 4-((2,6-difluoro-4-(1H-tetrazol-5-yl)benzyl)oxy)phenyl sulfurofluoridate]		> 40 µM	5 µM (≈ 1.93 µg/mL)		> 40 µM		
O=S(=O)(F)Oc1ccc(OCc2c(F)cc(-c3nnc[nH]3)cc2F)cc1 [Compound 19a, 4-((2,6-difluoro-4-(1H-1,2,4-triazol-3-yl)benzyl)oxy)phenylsulfurofluoridate]	14.7 µM		< 1 µM	19.3 µM		0.9 µM (≈ 0.347 µg/mL)	
Cn1cnc(-c2cc(F)c(COc3ccc(OS(=O)(=O)F)cc3)c(F)c2)n1 [Compound 19b, 4-((2,6-difluoro-4-(1-methyl-1H-1,2,4-triazol-3-yl)benzyl)oxy)phenyl sulfurofluoridate]		> 40 µM	1.25 µM (≈ 0.499 µg/mL)				
O=S(=O)(F)Oc1ccc(OCc2c(F)cc(-c3ccn[nH]3)cc2F)cc1 [Compound 19c, 4-((2,6-difluoro-4-(1H-pyrazol-5-yl)benzyl)oxy)phenyl sulfurofluoridate]	31.7 µM		0.84 µM (≈ 0.323 µg/mL)	18.5 µM			
O=S(=O)(F)Oc1ccc(OCc2c(F)cc(-c3ncc[nH]3)cc2F)cc1 [Compound 19d, 4-((2,6-difluoro-4-(1H-imidazol-2-yl)benzyl)oxy)phenyl sulfurofluoridate]			0.3 µM (≈ 0.115 µg/mL)	30.1 µM	> 40 µM		
Cn1ccnc1-c1cc(F)c(COc2ccc(OS(=O)(=O)F)cc2)c(F)c1 [Compound 19e, 4-((2,6-difluoro-4-(1-methyl-1H-imidazol-2-yl)benzyl)oxy)phenyl sulfurofluoridate]	26 µM		1.25 µM (≈ 0.498 µg/mL)	13.7 µM			
O=S(=O)(F)Oc1ccc(OCc2c(F)cc(-n3ccnc3)cc2F)cc1 [Compound 19f, 4-((2,6-difluoro-4-(1H-imidazol-1-yl)benzyl)oxy)phenyl sulfurofluoridate]	9.65 µM	< 10 µM	0.37 µM (≈ 0.142 µg/mL)	8.63 µM	< 10 µM		
O=S(=O)(F)Oc1ccc(OCc2c(F)cc(-c3ncon3)cc2F)cc1 [Compound 19i, 4-((2,6-difluoro-4-(1,2,4-oxadiazol-3-yl)benzyl)oxy)phenyl sulfurofluoridate]		> 40 µM	< 1 µM		> 40 µM	0.62 µM (≈ 0.24 µg/mL)	

Compound	CC50 at 72 h [1]	CC50 (in vitro)	MIC (Mtb H37Rv; [2])	CC50 at 72 h (in vitro)	CC50 at 3 days [1]	MIC (Mtb H37Rv)	anti-TB activity against Mtb (in words) (Mtb H37Rv)
O=S(=O)(F)Oc1ccc(OCc2c(F)cc(-c3cnoc3)cc2F)cc1 [Compound 19j, 4-((2,6-difluoro-4-(isoxazol-4-yl)benzyl)oxy)phenyl sulfurofluoridate]	23.8 µM		< 1 µM	6.99 µM		0.78 µM (≈ 0.301 µg/mL)	
N#Cc1ncn(-c2cc(F)c(COc3ccc(OS(=O)(=O)F)cc3)c(F)c2)n1 [Compound 20 g, 4-((4-(3-cyano-1H-1,2,4-triazol-1-yl)-2,6-difluorobenzyl)oxy)phenyl sulfurofluoridate]			0.45 µM (≈ 0.185 µg/mL)	10.3 µM			
NC(=O)c1ncn(-c2cc(F)c(COc3ccc(OS(=O)(=O)F)cc3)c(F)c2)n1 [Compound 20 k, 4-((4-(3-carbamoyl-1H-1,2,4-triazol-1-yl)-2,6-difluorobenzyl)oxy)phenyl sulfurofluoridate]		> 40 µM	0.17 µM (≈ 0.0728 µg/mL)		> 40 µM		
NS(=O)(=O)c1ncn(-c2cc(F)c(COc3ccc(OS(=O)(=O)F)cc3)c(F)c2)n1 [Compound 20 l, 4-((2,6-difluoro-4-(3-sulfamoyl-1H-1,2,4-triazol-1-yl)benzyl)oxy)phenyl sulfurofluoridate]		> 40 µM	0.47 µM (≈ 0.218 µg/mL)				
Cc1ncn(-c2cc(F)c(COc3ccc(OS(=O)(=O)F)cc3)c(F)c2)n1 [Compound 20a, 4-((2,6-difluoro-4-(3-methyl-1H-1,2,4-triazol-1-yl)benzyl)oxy)phenyl sulfurofluoridate]	17.1 µM		0.3 µM (≈ 0.12 µg/mL)	16.3 µM			
CCc1ncn(-c2cc(F)c(COc3ccc(OS(=O)(=O)F)cc3)c(F)c2)n1 [Compound 20b, 4-((4-(3-ethyl-1H-1,2,4-triazol-1-yl)-2,6-difluorobenzyl)oxy)phenyl sulfurofluoridate]			0.6 µM (≈ 0.248 µg/mL)	5.8 µM	> 40 µM		
CC(C)c1ncn(-c2cc(F)c(COc3ccc(OS(=O)(=O)F)cc3)c(F)c2)n1 [Compound 20c, 4-((2,6-difluoro-4-(3-isopropyl-1H-1,2,4-triazol-1-yl)benzyl)oxy)phenyl sulfurofluoridate]	16.7 µM		0.6 µM (≈ 0.256 µg/mL)	12.4 µM			
CC(C)(C)c1ncn(-c2cc(F)c(COc3ccc(OS(=O)(=O)F)cc3)c(F)c2)n1 [Compound 20d, 4-((4-(3-(tert-butyl)-1H-1,2,4-triazol-1-yl)-2,6-difluorobenzyl)oxy)phenyl sulfurofluoridate]	13.7 µM		1.2 µM (≈ 0.53 µg/mL)	6.9 µM			
Cc1nc(C)n(-c2cc(F)c(COc3ccc(OS(=O)(=O)F)cc3)c(F)c2)n1 [Compound 20e, 4-((4-(3,5-dimethyl-1H-1,2,4-triazol-1-yl)-2,6-difluorobenzyl)oxy)phenyl sulfurofluoridate]	14.3 µM		0.23 µM (≈ 0.0951 µg/mL)	8.1 µM			
COc1ncn(-c2cc(F)c(COc3ccc(OS(=O)(=O)F)cc3)c(F)c2)n1 [Compound 20f, 4-((2,6-difluoro-4-(3-methoxy-1H-1,2,4-triazol-1-yl)benzyl)oxy)phenyl sulfurofluoridate]		> 40 µM	0.6 µM (≈ 0.249 µg/mL)		> 40 µM		
CS(=O)(=O)c1ncn(-c2cc(F)c(COc3ccc(OS(=O)(=O)F)cc3)c(F)c2)n1 [Compound 20i, 4-((2,6-difluoro-4-(3-(methylsulfonyl)-1H-1,2,4-triazol-1-yl)benzyl)oxy)phenyl sulfurofluoridate]	17.2 µM		0.4 µM (≈ 0.185 µg/mL)	9.3 µM			
O=C(O)c1ncn(-c2cc(F)c(COc3ccc(OS(=O)(=O)F)cc3)c(F)c2)n1 [Compound 20j, 1-(3,5-difluoro-4-((4-((fluorosulfonyl)oxy)phenoxy)methyl)phenyl)-1H-1,2,4-triazole-3-carboxylic acid]		> 40 µM	1.25 µM (≈ 0.537 µg/mL)		> 40 µM		
CS(=O)(=O)Nc1ncn(-c2cc(F)c(COc3ccc(O)cc3)c(F)c2)n1 [Compound 21 g]						> 10 µM	no activity
CN(c1ncn(-c2cc(F)c(COc3ccc(OS(=O)(=O)F)cc3)c(F)c2)n1)S(C)(=O)=O [Compound 21c, 4-((2,6-difluoro-4-(3-(N-methylmethylsulfonamido)-1H-1,2,4-triazol-1-yl)benzyl)oxy)phenyl sulfurofluoridate]			0.31 µM (≈ 0.153 µg/mL)	15.3 µM			
CCS(=O)(=O)Nc1ncn(-c2cc(F)c(COc3ccc(OS(=O)(=O)F)cc3)c(F)c2)n1 [Compound 21d, 4-((4-(3-(ethylsulfonamido)-1H-1,2,4-triazol-1-yl)-2,6-difluorobenzyl)oxy)phenyl sulfurofluoridate]		> 40 µM	0.08 µM (≈ 0.0394 µg/mL)				
